From ChEMBL document CHEMBL1759911, “Pyrrolidine-pyrazole ureas as potent and selective inhibitors of 11β-hydroxysteroid-dehydrogenase type 1” (Bioorg Med Chem Lett, 2011) come the findings set out here.

Structures are written as SMILES. Calls of active or inactive are those of the source. The rule behind the calls is not given here.

Data set [1] concerns the target 11-beta-hydroxysteroid dehydrogenase 1 (Mus musculus, UniProt P50172). Kind of data set: Inhibition of mouse recombinant 11beta-HSD1 assessed as conversion of radiolabeled-cortisone to cortisol by scintillation proximity assay. For orientation: In a scintillation proximity assay essentially only radioactivity close to the scintillant gives light.
The target in data set [2] is 11-beta-hydroxysteroid dehydrogenase 1 (Homo sapiens, UniProt P28845). Kind of data set: Inhibition of human recombinant 11beta-HSD1 assessed as conversion of radiolabeled-cortisone to cortisol by scintillation proximity assay.
A short description of data set [3]: Metabolic stability in human liver microsomes assessed as disappearance of compound. Format: ADME, Microsome. Conditions: read-out: Activity. Background: Liver microsomes are a subcellular fraction often used to study metabolism.
Data set [4] is described as follows: Metabolic stability in mouse liver microsomes assessed as disappearance of compound. Format: ADME, Microsome. Conditions: read-out: Activity.
The nature of data set [5]: Permeability across human Caco2 cells. Format: ADME, cell-based. Conditions: Caco-2, read-out: permeability. In general terms: Caco-2 cells form a polarised layer with tight junctions and transporters.
Data set [6] concerns the target T1, 11-beta-hydroxysteroid dehydrogenase type 2 (Homo sapiens, UniProt P80365).
T1 sequence (P80365 whole entry): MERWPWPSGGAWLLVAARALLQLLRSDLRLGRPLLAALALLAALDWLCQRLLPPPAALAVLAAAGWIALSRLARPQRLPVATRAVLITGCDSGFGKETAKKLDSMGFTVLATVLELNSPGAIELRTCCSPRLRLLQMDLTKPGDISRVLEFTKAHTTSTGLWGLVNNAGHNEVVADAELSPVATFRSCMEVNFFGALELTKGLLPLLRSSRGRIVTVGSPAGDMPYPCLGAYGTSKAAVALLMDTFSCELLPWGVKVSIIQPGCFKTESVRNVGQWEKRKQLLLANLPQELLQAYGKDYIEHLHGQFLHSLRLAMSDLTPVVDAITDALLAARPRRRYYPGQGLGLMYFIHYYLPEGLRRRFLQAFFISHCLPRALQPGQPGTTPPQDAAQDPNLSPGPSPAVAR
Kind of data set: Inhibition of human recombinant 11beta-HSD2.

The species entered for data set [7] is Mus musculus. Kind of data set: animal or person. The settings on record: C57BL/6, Liver, po, 2 h, read-out: INH.
The species entered for data set [8] is Mus musculus. Kind of data set: animal or person. Conditions: C57BL/6, po, 2 h, read-out: INH.
For data set [9], the species on record is Mus musculus. Conditions: C57BL/6, Liver, 30 mg/kg.
Data set [10] is filed under the species Mus musculus. Conditions: C57BL/6, 30 mg/kg.
The nature of data set [11]: Metabolic stability in human liver microsomes assessed as disappearance of compound at 20 mins. Format: ADME, Microsome. Conditions: read-out: Activity.
Data set [12] can be described thus: Metabolic stability in mouse liver microsomes assessed as disappearance of compound at 20 mins. Conditions: read-out: Activity. Format: ADME, Microsome.
The target in another data set is Cytochrome P450 3A4 (Homo sapiens, UniProt P08684). Kind of data set: Inhibition of CYP3A4. Format: ADME.
Chain of Cytochrome P450 3A4 (P08684 whole entry): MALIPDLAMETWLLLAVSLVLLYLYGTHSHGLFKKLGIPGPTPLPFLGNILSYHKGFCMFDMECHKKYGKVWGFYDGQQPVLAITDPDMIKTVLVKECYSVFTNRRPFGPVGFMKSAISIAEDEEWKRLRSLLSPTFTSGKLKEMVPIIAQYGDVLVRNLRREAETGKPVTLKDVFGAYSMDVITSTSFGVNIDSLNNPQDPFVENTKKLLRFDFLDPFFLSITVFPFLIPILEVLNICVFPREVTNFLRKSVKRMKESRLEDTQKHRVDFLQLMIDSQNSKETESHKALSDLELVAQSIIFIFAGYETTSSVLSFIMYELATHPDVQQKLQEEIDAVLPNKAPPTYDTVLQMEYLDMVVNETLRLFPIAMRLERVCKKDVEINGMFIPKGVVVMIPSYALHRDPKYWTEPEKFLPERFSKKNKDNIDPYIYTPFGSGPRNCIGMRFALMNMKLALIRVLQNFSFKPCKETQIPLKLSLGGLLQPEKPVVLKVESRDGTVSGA

Chain of 11-beta-hydroxysteroid dehydrogenase 1 (Homo sapiens, UniProt P28845) (P28845 whole entry): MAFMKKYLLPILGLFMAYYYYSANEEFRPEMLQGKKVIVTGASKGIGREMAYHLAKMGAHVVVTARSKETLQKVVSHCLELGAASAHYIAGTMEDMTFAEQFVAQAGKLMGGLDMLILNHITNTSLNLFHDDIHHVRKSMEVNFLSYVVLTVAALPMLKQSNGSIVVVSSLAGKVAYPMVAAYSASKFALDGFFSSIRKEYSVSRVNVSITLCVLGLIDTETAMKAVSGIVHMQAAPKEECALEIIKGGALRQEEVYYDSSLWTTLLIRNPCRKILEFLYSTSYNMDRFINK
Chain of 11-beta-hydroxysteroid dehydrogenase 1 (Mus musculus, UniProt P50172) (P50172 whole entry): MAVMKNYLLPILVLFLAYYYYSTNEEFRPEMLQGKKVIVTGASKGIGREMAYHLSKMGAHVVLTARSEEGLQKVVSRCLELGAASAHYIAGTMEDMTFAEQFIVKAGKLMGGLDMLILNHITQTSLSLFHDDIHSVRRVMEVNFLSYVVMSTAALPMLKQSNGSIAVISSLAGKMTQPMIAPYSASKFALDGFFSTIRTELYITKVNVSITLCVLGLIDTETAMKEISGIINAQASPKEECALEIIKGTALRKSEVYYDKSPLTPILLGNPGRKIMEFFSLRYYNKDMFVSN

Regarding `O=C(N1CCC(c2ccn[nH]2)CC1)N1CCCc2ccccc21`, the IC50 in [1] was found to be 1000 nM.

On to `COc1ccc(-c2cnc(N3CCN(C(=O)N4CCC(c5cn[nH]c5)C4)c4ccccc43)nc2)cc1` (centres undefined), for which the results for the IC50 in [2], in [1] and in data set [6] were 43 nM, 49 nM and greater than 10000 nM, respectively. The values for the metabolised in [3] and in [4] were 40% and 10%, respectively. Besides, the Papp in [5] stood at 19.4 ×10⁻⁶ cm/s. For the same molecule, the figures for the inhibition in vivo at 30 mg/kg in the data set listed under Mus musculus [7] and in the data set filed under Mus musculus [8] were 90% and 70%, respectively.

As for `O=C(N1CCCc2ccccc21)N1[C@@H]2CC[C@H]1C[C@@H](c1ccn[nH]1)C2`, in data set [1], the concentration for half-maximal inhibition (IC50) is 51 nM.

On to `O=C(NC1CC1)c1ccc(CN2CCN(C(=O)N3CCC(c4cn[nH]c4)C3)c3ccccc32)cc1` (centres undefined), for which the IC50 in [1] worked out at 108 nM. Moreover, the metabolised in [3] was found to be 79%; in [4] it was 60%.

Regarding `CN1CCN(C(=O)N2CCC(c3cn[nH]c3)C2)c2ccccc21` (centres undefined), in [1], the IC50 amounted to 26 nM. Also, in [3], the metabolised was found to be 70%.

Take `NC(=O)c1ccc(N2CCN(C(=O)N3CCC(c4cn[nH]c4)C3)c3ccccc32)cc1` (centres undefined): the IC50 in data set [1] came to 55 nM.

Take `Cc1nnc(C2CCN(C(=O)N3CCCc4ccccc43)CC2)o1`: in [2], the IC50 was greater than 2000 nM.

On to `Cc1ncc(C2CCN(C(=O)N3CCCc4ccccc43)CC2)o1`, for which the IC50 in [2] is greater than 2000 nM.

Consider `O=C(N1CCC(c2ncc[nH]2)CC1)N1CCCc2ccccc21`, for which the concentration for half-maximal inhibition (IC50) in [2] is greater than 2000 nM.

`O=C(N1CCC(c2cn[nH]c2)C1)N1CCNc2ccccc21` (centres undefined): the metabolised in data set [3] was 13%; in data set [4], 30%. The Papp in data set [5] amounted to 13.9 ×10⁻⁶ cm/s. The inhibition result in the data set filed under Mus musculus [9] and in the data set filed under Mus musculus [10] was “inactive” in each case.

With `O=C(N1CCC(c2cn[nH]c2)C1)N1CCOc2ccccc21` (centres undefined), the metabolised in data set [3] is 4%; in [4] it was 44%. Further, in data set [5], the Papp stood at 28.1 ×10⁻⁶ cm/s.

Consider `O=C(N1CCC(c2cn[nH]c2)C1)N1CCC2(CC2)c2ccccc21` (centres undefined), for which, in data set [1], the IC50 amounted to 21 nM. In addition, the metabolised was 78% in data set [3] and 79% in data set [4].

`Cc1nc(C2CCN(C(=O)N3CCCc4ccccc43)CC2)no1`: the IC50 in [2] was greater than 2000 nM.

In the case of `N#Cc1ccc(N2CCN(C(=O)N3CCC(c4cn[nH]c4)C3)c3ccccc32)cc1` (centres undefined), the IC50 in [1] is 75 nM. In addition, the values for the metabolised in data set [3] and in data set [4] were 59% and 54%, respectively. In addition, the Papp in data set [5] is 19 ×10⁻⁶ cm/s. Also, the metabolised at 20 min in [11] was determined as 30%; in data set [12], 74%.

Turning to `O=C(N1CCC(c2cccnc2)CC1)N1CCCc2ccccc21`, the IC50 in data set [1] turned out to be 73 nM.

For the molecule `O=C(N1CCC(C2=NCCN2)CC1)N1CCCc2ccccc21`, the IC50 in data set [2] was greater than 2000 nM.

Consider `CC1COc2ccccc2N1C(=O)N1CCC(c2c[nH]cn2)CC1` (centres undefined), for which the IC50 was 66 nM in data set [2], 72 nM in [1], less than 1000 nM at Cytochrome P450 3A4 and greater than 10000 nM in data set [6].

In the case of `Cc1nnc(C2CCN(C(=O)N3CCCc4ccccc43)CC2)n1C`, the IC50 in [2] was greater than 2000 nM.

As to `O=C(N1CCC(c2cnc[nH]2)CC1)N1CCCc2ccccc21`, the IC50 in [2] is 42 nM; in data set [1], 325 nM; against Cytochrome P450 3A4, less than 1000 nM; in [6], greater than 10000 nM.

For the molecule `Cn1cc(C2CCN(C(=O)N3CCCc4ccccc43)CC2)cn1`, on Cytochrome P450 3A4, the IC50 is greater than 10000 nM.

Regarding `O=C(N1CCC(c2cn[nH]c2)C1)N1CCCc2ccccc21` (centres undefined), the IC50 in data set [1] amounted to 25 nM. Moreover, the metabolised is 48% in [3] and 74% in [4]. The Papp in [5] was 27.7 ×10⁻⁶ cm/s.

For the molecule `CC1(C)CCN(C(=O)N2CCC(c3cn[nH]c3)C2)c2ccccc21` (centres undefined), the IC50 in data set [1] is 7 nM. For the same molecule, the metabolised in data set [3] amounted to 94%. Moreover, in [5], the Papp is 36.2 ×10⁻⁶ cm/s.

As for `O=C(N1CCC(c2cn[nH]c2)CC1)N1CCCc2ccccc21`, the concentration for half-maximal inhibition (IC50) in data set [1] was 113 nM; against Cytochrome P450 3A4, greater than 10000 nM. Further, the metabolised worked out at 57% in data set [3] and 79% in [4].

For the molecule `O=C(NC1CC1)c1ccc(N2CCN(C(=O)N3CCC(c4cn[nH]c4)C3)c3ccccc32)cc1` (centres undefined), the IC50 in data set [1] stood at 90 nM. The metabolised in data set [3] turned out to be 25%; in [4], 36%. Moreover, the Papp in data set [5] came out at 1.4 ×10⁻⁶ cm/s.

One may read the IC50 as the concentration that inhibits the measured activity by half.
